Test results published in patent US20260364186A1, “Chemical Conjugates, Compositions, and Methods of Preparation and Use Thereof” (Transfection Holdings Limited, priority 2022, published 2026).
Entries after “also recorded” stand apart in the source; their conditions may differ.

Tests used:
[1] = test system: HEM (human epidermal melanocytes); assay: FACS uptake of BODIPY FL conjugates, 50 nM, 5 min (Example 1); type: cell-based; conditions: HEM / normal melanocytes
Protocol: FIG. 1. Conjugate compounds coupled to BODIPY FL were tested for uptake using 50 nM each conjugate and 5 minute incubation with HEM (human epidermal melanocytes) and melanoma cell line NZM11 (BRAF V600E mutant metastatic melanoma). Mean fluorescent intensities (MFI). For these tests, n=300-500, mean±SD. Results were from a single experiment done in triplicate. Cells were sorted by FACS.
Materials and methods: NZM11 is an adherent metastatic melanoma cell derived from a patient with a subcutaneous lesion on their mid back. This human metastatic melanoma is identified with code CBA-1398 from Cell bank Australia. […] Cells of NZM11 diluted in MEMα media and cells of HEMnDP (primary melanocyte cell line) diluted in media 254 were left to settle in 96-wells microplate for 48 hours. 10 μL of 10 mM stock solutions in DMSO from 138 and pantothenic acid/pantothenic acid derivatives coupled to BODIPY were diluted with HBSS to afford 100 nM solution. Then, 100 nM compounds and DMSO solutions were diluted 1:1 with MEMα media for NZM11 and media 254 for HEMnDP to afford 50 nM solutions. After the 48 hour settle time, media was removed from the cells and 200 μL of 50 nM media solutions were poured to each well and incubated for 5 minutes at 37 °C. […] The FACS results output represented the mean of the fluorescence intensities (in arbitrary units) measured for cells sorted in every sample

[2] = test system: NZM9 (BRAF and NRAS wildtype) melanoma cells; assay: FACS uptake of BODIPY FL conjugates, 200 nM, 5 min (Example 2); type: cell-based, human
Protocol: FIG. 2. Conjugate compounds coupled to BODIPY FL were tested for uptake using 200 nM each conjugate and 5 minute incubation with melanoma cell line NZM11 (BRAF V600E mutant metastatic melanoma), melanoma cell line NZM40 (NRAS Q16H mutant metastatic melanoma) and melanoma cell line NZM9 (BRAF and NRAS wildtype metastatic melanoma). Mean fluorescent intensities (MFI). 2,000 cells (NZM11), 1,000 cells (NZM40) and 500-1,000 cells (NZM9). Cells were sorted by FACS. Bars represent mean±SD. Results were from a single experiment done in triplicate.
NZM9 is an adherent cell line which was originally derived from a metastatic melanoma from a patient (from axillary lymph node, source: Cellosaurus database). These cancer cells are BRAF and NRAS wild type. NZM9 present a mutation on gene TP53, which is the most frequent in human cancers, on 179C/T. This gene encodes the synthesis of protein p53 which acts as a tumour suppressor. See Tran et al., 2021; Levine and Owen, 2009; Duffy and Crown, 2021.
For screening, NZM11, NZM40 and NZM9 cells were suspended at […] dispensed into 96 well plates and left to settle for 48 hours. Then, 10 μL of 10 mM stock solutions in DMSO for the conjugates were diluted with HBSS to afford 400 nM solution. Next, 400 nM compounds and DMSO solutions were diluted 1:1 with MEMα media to afford 200 nM solutions. After 48 hours the media was removed from the 96 well plates and 200 μL of 200 nM conjugates solutions dispensed to each well (in triplicate) and incubated for 5 minutes at 37 °C. After 5 minutes, the media was removed and cells washed with PBS. Then, 100 μL of TrypLE trypsin (ThermoFisher Scientific) were added to each well and incubated for 5 minutes at 37 °C after which, 100 μL of MEMα media were added and samples were sorted through FACS biosort. The FACS results output were represented as the mean of the fluorescence intensities (in arbitrary units) measured for cells sorted in every sample.

[3] = test system: HT29 (colorectal cancer cell line); assay: FACS uptake of BODIPY FL conjugates (Example 4); type: cell-based, human; conditions: 200 nM, 5 min
Protocol: FIG. 4A: Conjugate compounds coupled to BODIPY FL were tested for uptake using 200 nM each conjugate and 5 minute incubation with colorectal cancer cell line HT29. Mean fluorescent intensities (MFI). 1,000 cells were sorted by FACS.
Materials and methods: The HT-29 line was originally isolated from a primary tumour in 1964 from a person. This cell line is positive for expression of N-ras and overexpression of p53 antigen. The human colon adenocarcinoma cell line HT29, is not only used to study the biology of human colon cancers, but it is receiving special interest in studies focused on food digestion and bioavailability due to the ability to express characteristics of mature intestinal cells. The application of this cell line to transport studies of drugs and food compounds is illustrated, especially when the effect of the mucus layer is considered or used as co-culture in combination with Caco-2 cells. These cells have shown a high rate of glucose consumption and therefore, they require high glucose concentration in the medium. Verhoeck et al., 2015.
For these experiments, HT-29 or MEF cells were diluted on αMEM media (supplemented with 10% FBS+1% penicillin-streptomycin) to give a 250 cells/μL suspension of which 200 μL were aliquoted into each well of a 96 well plate followed by incubation for 24 hours. Next, 2 μL of 100 μM stock solutions in DMSO from the conjugates coupled to BODIPY were diluted with 998 μL of αMEM media to give a 200 nM solution. After 24 hour incubation, media was removed and 200 μL of 138 and pantothenic acid/pantothenic acid derivatives coupled to BODIPY 200 nM solutions were added and cells were incubated for 5 minutes at 37 °C. After 5 minutes, the compounds and DMSO solutions were removed and cells were washed with PBS. Then, 100 μL of TrypLE trypsin were added to each well and incubated for 5 minutes at 37 °C. After this time, 100 μL of DMEM media were added to the wells and samples were sorted through FACS biosort. The studies were completed in duplicated wells.

## CC1=CC(C)=[N+]2C1=Cc1ccc(CCCn3cc(CCNC(=O)/C=C/NC(=O)[C@H](O)C(C)(C)CO)nn3)n1[B-]2(F)F [Compound 124]
[1]
  uptake (fluorescence intensities): no significant uptake
[2]
  higher fluorescence intensities compared to enantiomer 126: 7 times
  uptake (fluorescence intensities): highest intensities; also recorded: best targeting activity

## CC1=CC(C)=[N+]2C1=Cc1ccc(CCCn3cc(CCNC(=O)/C=C/NC(=O)[C@@H]4OC(C)(C)OCC4(C)C)nn3)n1[B-]2(F)F [Compound 125, (R,E)-N-((((3-[4,4-difluoro-5,7-dimethyl-4-bora-3a,4a-diaza-s-indacene-3-yl]propyl)-1H-1,2,3-triazol-4-yl)eth-ylamino)-3-oxoprop-1-enyl)-2,2,5,5-tetramethyl-1,3-dioxane-4-carboxamide]
[2]
  uptake (fluorescence intensities): selective uptake; also recorded: significant uptake
[3]
  uptake (fluorescent intensities): moderately higher fluorescent intensities

## CC1=CC(C)=[N+]2C1=Cc1ccc(CCCn3cc(CCNC(=O)/C=C\NC(=O)[C@H]4OC(C)(C)OCC4(C)C)nn3)n1[B-]2(F)F [Compound 131, (Z)—N-((((3-[4,4-Difluoro-5,7-dimethyl-4-bora-3a,4a-diaza-s-indacene-3-yl]propyl)-1H-1,2,3-triazol-4-yl)ethylamino)-3-oxoprop-1-enyl)-2,2,5,5-tetramethyl-1,3-dioxane-4-carboxamide]
[1]
  uptake (fluorescence intensities): significant uptake
[3]
  uptake (fluorescent intensities): higher uptakes than their diol counterparts
